Assay results: patent US10774051B2, “6-membered heterocyclic derivatives and pharmaceutical composition comprising the same” (Shionogi & Co., Ltd., priority 2015, dated 2020)

Each molecule was assayed against human P2X7 receptor (Homo sapiens, UniProt Q99572, R270H/Y155H) (assay: Evaluation of human P2X7 receptor inhibitory activity (Yo-Pro uptake, BzATP stimulation, FLIPR TETRA)). Settings: 1321N1 cells stably expressing human P2X7 receptor; BzATP stimulation, Yo-Pro uptake; read-out: IC50 (antagonistic activity for the human P2X7 receptor).
Assay type: cell-based
Procedure, shortened: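 Yo-Pro dye uptake triggered by BzATP was monitored by FLIPR in human P2X7-transfected 1321N1 cells (SNP variant) in HEPES-buffered HBSS, pH 7.4-7.5. Compound was dispensed 8 min post-stimulation, then signal read for 20 min; IC50 derived logistically from inhibition of the fluorescence range.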

Compared with COc1cnc(Nc2cc(N3CCCC3=O)ccc2C)n(Cc2ccc(F)c(Cl)c2)c1=O [Compound I-0986], COc1cn(Cc2ccc(F)c(Cl)c2)c(N[C@@H]2CCc3ccccc32)nc1=O [Compound I-0335] is 7.1-fold higher in IC50: 24 nM for the first, 170 nM for the second. The first is the more potent here.

First: CCOC(=O)c1cn(Cc2ccccc2)c(Nc2cc(C)c(C)cc2C)nc1=O [Compound I-0196]
Second: COc1cc(C)c(Nc2cc(=O)c(OC)cn2Cc2ccccc2)cc1C [Compound I-0945]
The IC50 of the first is 13-fold lower: 13 nM for the first, 170 nM for the second.

CCc1cc2c(cc1Nc1nc(=O)c(OC)cn1Cc1ccccc1F)CCC2 [Compound I-0178] and COc1cn(Cc2cc(F)cc(F)c2)c(Nc2cc3[nH]ncc3cc2C)nc1=O [Compound I-0597] are within 1.5-fold of each other in IC50: 21 nM for the first, 20 nM for the second.

COc1cc(C)c(Nc2nc(=O)c(F)cn2Cc2cc(F)cc(F)c2)cc1C(C)C [Compound I-1071] gave an IC50 of 15 nM.

Same assay, conditions: 1321N1 cells stably expressing human P2X7 receptor; BzATP stimulation, Yo-Pro uptake; read-out: IC50 (antagonistic activity for the human P2X7 receptor), class symbol

First: COc1cc(C)c(Nc2nc(=O)c(OC)cn2Cc2ccccc2)cc1OC [Compound I-0182]
Second: COc1ccc(C)c(Nc2nc(=O)c(OC)cn2Cc2ccccc2)c1 [Compound I-0074]
The IC50 of the first is lower: under 10 nM for the first, 10 to 100 nM for the second.

COc1cn(Cc2cc(F)c(F)c(F)c2)c(Nc2cc(C)ccc2C)nc1=O [Compound I-0571] and COc1cn(Cc2cc(F)cc(F)c2)c(Nc2cc(C)ccc2C)nc1=O [Compound I-0436] cannot be ordered by IC50: under 10 nM for the first, under 10 nM for the second.

First: Cc1ccccc1Cn1cc(O)c(=O)nc1Nc1cccc(C(F)(F)F)c1Cl [Compound I-0015]
Second: COc1cn(Cc2ccccc2C)c(Nc2cccc(Cl)c2C)nc1=O [Compound I-0043]
The IC50 of the first is higher: 500 to 1000 nM for the first, 100 to 500 nM for the second.

COc1cn(Cc2cc(F)cc(F)c2)c(Nc2cc3c(cc2C)COC3)nc1=O [Compound I-0003] and COc1cc(C)c(Nc2nc(=O)c(OC)cn2Cc2cc(F)cc(F)c2)cc1OC [Compound I-0439] cannot be ordered by IC50: under 10 nM for the first, under 10 nM for the second.

First: COc1cn(Cc2ccccc2)c(Nc2cc3sc(C)nc3cc2C)nc1=O [Compound I-0431]
Second: COc1cn(Cc2ccccc2)c(Nc2cc(Cl)ccc2C)nc1=O [Compound I-0092]
The IC50 of the first is lower: 10 to 100 nM for the first, 100 to 500 nM for the second.

Compared with COc1cccc(Nc2nc(=O)c(OC)cn2Cc2ccccc2)c1C [Compound I-0007], COc1cn(Cc2ccccc2)c(Nc2cccc(Oc3ccccc3)c2C)nc1=O [Compound I-0138] is higher in IC50: 10 to 100 nM for the first, 500 to 1000 nM for the second.

COc1cn(Cc2ccc(F)c(Cl)c2)c(Nc2cccc3[nH]c(C)cc23)nc1=O [Compound I-0489] and COc1cn(Cc2ccc(F)c(F)c2)c(Nc2cccc(C)c2Cl)nc1=O [Compound I-0482] cannot be ordered by IC50: under 10 nM for the first, under 10 nM for the second.

First: COc1cn(Cc2ccccc2)c(Nc2cccc3c2ccn3C)nc1=O [Compound I-0117]
Second: COc1cn(Cc2ccccc2)c(Nc2cc(C(N)=O)ccc2Cl)nc1=O [Compound I-0181]
The IC50 of the first is lower: 10 to 100 nM for the first, 500 to 1000 nM for the second.

First: Cc1cc(C)c(Nc2nc(=O)c(C(=O)NC3CCOCC3)cn2Cc2ccccc2)cc1C [Compound I-0219]
Second: COCCNC(=O)c1cn(Cc2ccccc2)c(Nc2cccc(Cl)c2C)nc1=O [Compound I-0076]
The IC50 of the first is lower: 10 to 100 nM for the first, 100 to 500 nM for the second.

Compared with Cc1c(Cl)cccc1Nc1nc(=O)c(CC(=O)NCC#N)cn1Cc1ccccc1 [Compound I-0344], COc1cn(Cc2cccc(F)c2)c(Nc2cccc(Cl)c2C)nc1=O [Compound I-0039] is lower in IC50: 100 to 500 nM for the first, 10 to 100 nM for the second. The second is the more potent here.

COc1cn(Cc2ccc(F)c(Cl)c2)c(Nc2ccc(OC(F)(F)F)cc2C)nc1=O [Compound I-0241] and COc1cn(Cc2cc(F)cc(Cl)c2)c(Nc2cccc(C)c2C)nc1=O [Compound I-0403] fall in the same range of IC50: 10 to 100 nM for the first, 10 to 100 nM for the second.

COc1cn(Cc2cc(F)cc(F)c2)c(Nc2cccc(OC(C)C)c2C)nc1=O [Compound I-0514] and CCc1ccc(OC)cc1Nc1nc(=O)c(OC)cn1Cc1cccc(F)c1 [Compound I-0251] fall in the same range of IC50: 10 to 100 nM for the first, 10 to 100 nM for the second.

COc1cn(Cc2ccccc2)c(Nc2cc(N3CCCS3(=O)=O)ccc2C)nc1=O [Compound I-0070] showed an IC50 of 10 to 100 nM.

Same assay, conditions: antagonistic activity for the human P2X7 receptor; read-out: IC50

First: Cc1ccc(-c2nnco2)cc1Nc1nc(=O)c(Cl)cn1Cc1cc(F)cc(F)c1 [Compound I-0699]
Second: COc1ccc(C)c(Nc2nc(=O)c(C#N)cn2Cc2cc(F)cc(F)c2)c1 [Compound I-1123]
The IC50 of the first is lower: under 10 nM for the first, 100 to 500 nM for the second. The first is the more potent here.

COc1cn(Cc2ccc(F)c(Cl)c2)c(Nc2ccc3c(c2C)OC(F)(F)C(F)(F)O3)nc1=O [Compound I-0824] and COc1cn(Cc2ccc(F)c(Cl)c2)c(Nc2ccc3nc(C)sc3c2C)nc1=O [Compound I-0859] fall in the same range of IC50: 10 to 100 nM for the first, 10 to 100 nM for the second.

CCOc1c(C)cccc1Nc1nc(=O)c(F)cn1Cc1cc(F)c(F)c(F)c1 [Compound I-1223] and CCOc1cc(C)c(Nc2nc(=O)c(F)cn2Cc2cc(F)c(F)c(F)c2)cc1C [Compound I-1201] cannot be ordered by IC50: under 10 nM for the first, under 10 nM for the second.

First: COc1nc(C)c(Nc2nc(=O)c(F)cn2Cc2cc(F)cc(F)c2)cc1C [Compound I-1003]
Second: Cc1ccc(OC(F)F)cc1Nc1nc(=O)c(F)cn1Cc1cc(F)cc(F)c1 [Compound I-0994]
The IC50 of the first is lower: under 10 nM for the first, 10 to 100 nM for the second.

COc1cn(Cc2cc(F)c(F)c(F)c2)c(Nc2cc(Oc3ccccn3)ccc2C)nc1=O [Compound I-0899] and COc1cn(Cc2ccc(F)c(Cl)c2)c(Nc2cc(Oc3ccccn3)ccc2C)nc1=O [Compound I-0896] cannot be ordered by IC50: under 10 nM for the first, under 10 nM for the second.

Cc1nc2cc(Cl)c(Nc3nc(=O)c(F)cn3Cc3ccc(F)c(Cl)c3)cc2o1 [Compound I-1077] and Cc1nc2cc(Cl)c(Nc3nc(=O)c(F)cn3Cc3cc(F)c(F)c(F)c3)cc2o1 [Compound I-1078] cannot be ordered by IC50: under 10 nM for the first, under 10 nM for the second.

First: CCc1cc2c(cc1Nc1nc(=O)c(OC)cn1Cc1cc(F)cc(F)c1)OCCO2 [Compound I-0797]
Second: CCc1cc(F)c(OC)cc1Nc1nc(=O)c(OC)cn1Cc1cc(F)cc(Cl)c1 [Compound I-0816]
The IC50 of the first is higher: 10 to 100 nM for the first, under 10 nM for the second.

Cc1ccccc1Nc1nc(=O)c(C)cn1Cc1cc(F)c(F)c(F)c1 [Compound I-1098] and COc1ccc(Nc2nc(=O)c(C#N)cn2Cc2cc(F)c(F)c(F)c2)c(C)c1 [Compound I-1112] fall in the same range of IC50: 10 to 100 nM for the first, 10 to 100 nM for the second.

COc1cc(C)c(Nc2nc(=O)c(OC)cn2Cc2cc(F)c(F)c(F)c2)cc1Cl [Compound I-0763] and CCOc1cc(C)c(Nc2nc(=O)c(OC)cn2Cc2cc(F)c(F)c(F)c2)cc1C [Compound I-0624] cannot be ordered by IC50: under 10 nM for the first, under 10 nM for the second.

C=C(C)c1ccc(C)c(Nc2nc(=O)c(OC)cn2Cc2cc(F)cc(F)c2)c1 [Compound I-0749] and COc1cn(Cc2cc(F)cc(Cl)c2)c(Nc2cc(Cl)c(F)cc2C)nc1=O [Compound I-0811] fall in the same range of IC50: 10 to 100 nM for the first, 10 to 100 nM for the second.

First: CCOc1ccc(Nc2nc(=O)c(OC)cn2Cc2cc(F)c(F)c(F)c2)c(C)c1 [Compound I-0725]
Second: CCOc1ccc(Nc2nc(=O)c(F)cn2Cc2ccc(F)c(F)c2)c(C)c1 [Compound I-1048]
The IC50 of the first is lower: under 10 nM for the first, 10 to 100 nM for the second. The first is the more potent here.

COc1cn(Cc2ccc(F)c(F)c2)c(Nc2cc(N3CCCC3=O)ccc2C)nc1=O [Compound I-0646] and COc1cn(Cc2cc(F)c(F)c(F)c2)c(Nc2cc(N3CCCC3=O)ccc2C)nc1=O [Compound I-0803] fall in the same range of IC50: 10 to 100 nM for the first, 10 to 100 nM for the second.

First: COc1cn(Cc2ccc(F)c(Cl)c2)c(Nc2cc(-c3cnccn3)ccc2C)nc1=O [Compound I-0664]
Second: COc1cn(Cc2ccc(F)c(Cl)c2)c(Nc2cc(-c3ccccc3)ccc2C)nc1=O [Compound I-0828]
The IC50 of the first is lower: under 10 nM for the first, 10 to 100 nM for the second.

Compared with CCOc1cc(Nc2nc(=O)c(OC)cn2Cc2ccc(F)c(Cl)c2)c(C)cc1F [Compound I-0919], CCOc1cn(Cc2ccc(F)c(Cl)c2)c(Nc2cc(OC)c(OC)cc2C)nc1=O [Compound I-0795] is lower in IC50: 10 to 100 nM for the first, under 10 nM for the second.

Cc1cc(OC(F)F)c(C)cc1Nc1nc(=O)c(Cl)cn1Cc1ccc(F)c(F)c1 [Compound I-0838] and Cc1cc(OC(F)F)c(C)cc1Nc1nc(=O)c(F)cn1Cc1ccc(F)c(F)c1 [Compound I-0835] cannot be ordered by IC50: under 10 nM for the first, under 10 nM for the second.

COc1cn(Cc2ccccc2)c(Nc2cc(C)c(OCC(F)(F)F)cc2C)nc1=O [Compound I-0800] and CCOc1cc(Nc2nc(=O)c(OC)cn2Cc2ccccc2)c(C)cc1F [Compound I-0918] fall in the same range of IC50: 10 to 100 nM for the first, 10 to 100 nM for the second.

First: COCCOc1cc(Nc2nc(=O)c(F)cn2Cc2cc(F)c(F)c(F)c2)c(C)cc1F [Compound I-1204]
Second: CCOc1cc(C)c(Nc2nc(=O)c(F)cn2Cc2ccc(F)c(F)c2)cc1F [Compound I-1062]
The IC50 of the first is lower: under 10 nM for the first, 10 to 100 nM for the second.

COc1cn(Cc2ccccc2)c(Nc2ccc(OC(F)(F)F)cc2C)nc1=O [Compound I-0628] and COc1cn(Cc2cc(F)cc(Cl)c2)c(Nc2ccc(OC(F)(F)F)cc2C)nc1=O [Compound I-0609] fall in the same range of IC50: 100 to 500 nM for the first, 100 to 500 nM for the second.

Compared with CCc1cc(F)c(OC)cc1Nc1nc(=O)c(OC)cn1Cc1ccccc1 [Compound I-0813], CCc1cc2c(cc1Nc1nc(=O)c(OC)cn1Cc1ccccc1)OC(F)(F)O2 [Compound I-0728] is higher in IC50: under 10 nM for the first, 100 to 500 nM for the second. The first is the more potent here.

COc1ccc(C)c(Nc2nc(=O)c(F)cn2Cc2ccc(F)c(Cl)c2)c1 [Compound I-1067] and Cc1cc2c(cc1Nc1nc(=O)c(F)cn1Cc1ccc(F)c(Cl)c1)COC2 [Compound I-1026] cannot be ordered by IC50: under 10 nM for the first, under 10 nM for the second.

Compared with O=c1nc(Nc2cccc3c2CCN3)n(Cc2cc(F)cc(F)c2)cc1F [Compound I-1074], Cc1nc2cc(C)c(Nc3nc(=O)c(F)cn3Cc3ccc(F)cc3)cc2s1 [Compound I-1011] is lower in IC50: 10 to 100 nM for the first, under 10 nM for the second.

First: COc1cc(C)c(Nc2nc(=O)c(OC)cn2Cc2ccc(F)cc2)cc1Cl [Compound I-0615]
Second: COc1cn(Cc2ccccc2)c(Nc2cc(C)c(Cl)cc2F)nc1=O [Compound I-0801]
The IC50 of the first is lower: under 10 nM for the first, 100 to 500 nM for the second. The first is the more potent here.

Cc1ccc(F)cc1Nc1nc(=O)c(CO)nn1Cc1cc(F)c(F)c(F)c1 [Compound I-1253] and COCc1cn(Cc2cc(F)c(F)c(F)c2)c(Nc2cc(OC)ccc2C)nc1=O [Compound I-1138] fall in the same range of IC50: 10 to 100 nM for the first, 10 to 100 nM for the second.

In the case of COc1cn(Cc2cc(F)c(F)c(F)c2)c(Nc2ccc3c(c2C)COC3)nc1=O [Compound I-0911], the IC50 is reported as 10 to 100 nM.
